{"source": "patent US6046218A", "about": "“Pyridine derivative and medicament containing the same as an effective ingredient” (SS Pharmaceutical Co., Ltd., priority 1996, dated 2000)", "assay_type_in_all_cases": "cell-based", "key": {"IL-4 production [1]": {"tested_on": "IL-4 production", "experiment": "Test 1: inhibition of IL-4 production in human T-cell strain ATL-16T(-) stimulated with PMA (R&D Systems EIA)", "conditions": "ATL-16T(-) 1×10^6 cells/0.5 ml/well, 20 nM PMA, 48 hours, read-out: Inhibition rate of IL-4 production; for inhibition at 10 µM: 10^-5 M; for inhibition at 1 µM: 10^-6 M; for inhibition at 0.1 µM: 10^-7 M; for inhibition at 0.01 µM: 10^-8 M", "protocol": "Test 1: Test on the inhibition of IL-4 production\n(§1) Into individual wells of a 48-well microplate, the human T-cell strain ATL-16T(-) was poured at a concentration of 1×10^6 cells/0.5 ml/well (n=3), followed by the addition of a stimulator (20 nM of PMA) and a medicament at the same time. The resulting mixture was incubated in 5% CO2 at 37° C. for 48 hours. After incubation, 100 μl of the supernatant were collected and subjected to measurement by a human IL-4 EIA kit (R&D SYSTEMS, INC.). The inhibition rate was calculated according to the following formula. [formula]"}, "IL-5 production": {"tested_on": "IL-5 production", "experiment": "Test 3: inhibition of IL-5 production in human PBMC stimulated with ConA", "conditions": "10^-6 M, 10 μg/ml ConA, 48 hours, read-out: Inhibition rate of IL-5 production", "protocol": "Test 3: Test on the inhibition of IL-5 production\nThe peripheral blood was collected from a normal volunteer and peripheral blood mononuclear cells (PBMC) of the human peripheral blood were separated therefrom by the specific gravity centrifugation method. They were suspended in an AIM-V medium and their cell count was adjusted. To individual wells of a 96-well incubation plate, 1×10^6 cells/ml of PBMC were poured, followed by the addition of a stimulator (10 μg/ml of ConA) and a medicament. The resulting mixture was incubated in 5% CO2 at 37° C. for 48 hours. After incubation, 50 μl of the supernatant were collected and subjected to measurement by a human IL-5 EIA kit (BIO SOURCE, INC.). The inhibition rate was calculated according to the following formula. [formula]"}, "IL-4 production [2]": {"tested_on": "IL-4 production", "experiment": "Test 2: inhibition of IL-4 production in human T-cell strain ATL-16T(-) stimulated with PMA (Bio Source EIA)", "conditions": "ATL-16T(-) 5×10^5 cells/0.5 ml/well, 20 nM PMA, 48 hours, read-out: Inhibition rate of IL-4 production; for inhibition at 10 µM: 10^-5 M; for inhibition at 1 µM: 10^-6 M; for inhibition at 0.1 µM: 10^-7 M; for inhibition at 0.01 µM: 10^-8 M", "protocol": "Test 2: Test on the inhibition of IL-4 production\nas §1, with “5×10^5” for “1×10^6”, “50” for “100”, “(BIO SOURCE,” for “(R&D SYSTEMS,”"}}, "data": [{"compound": "COc1cnc(/C=C/C(=O)c2ccccc2)cc1OC(=O)c1ccccc1", "note": "[Ex. 43, 4-benzoyloxy-5-methoxy-2-(3-oxo-3-phenyl-1-propenyl)pyridine]", "values": [{"measurement": "inhibition at 10 µM", "setting": "IL-4 production [1]", "result": 80.8, "unit": "%"}, {"measurement": "inhibition at 1 µM", "setting": "IL-4 production [1]", "result": 72.6, "unit": "%"}, {"measurement": "inhibition at 0.1 µM", "setting": "IL-4 production [1]", "result": 70.3, "unit": "%"}, {"measurement": "inhibition at 0.01 µM", "setting": "IL-4 production [1]", "result": 35.5, "unit": "%"}, {"measurement": "inhibition at 1 µM", "setting": "IL-5 production", "result": 61.4, "unit": "%"}]}, {"compound": "CCOC(=O)COc1cc(/C=C/C(=O)c2ccccc2)ncc1OC", "note": "[Ex. 45]", "values": [{"measurement": "inhibition at 10 µM", "setting": "IL-4 production [1]", "result": 89.5, "unit": "%"}, {"measurement": "inhibition at 1 µM", "setting": "IL-4 production [1]", "result": 86.4, "unit": "%"}, {"measurement": "inhibition at 0.1 µM", "setting": "IL-4 production [1]", "result": 80.1, "unit": "%"}, {"measurement": "inhibition at 0.01 µM", "setting": "IL-4 production [1]", "result": 74, "unit": "%"}, {"measurement": "inhibition at 1 µM", "setting": "IL-5 production", "result": 64.3, "unit": "%"}]}, {"compound": "CCCCOc1cc(/C=C/C(=O)c2ccccc2)ncc1OC", "note": "[Ex. 46, 4-Butoxy-5-methoxy-2-(3-oxo-3-phenyl-1-propenyl)pyridine]", "values": [{"measurement": "inhibition at 10 µM", "setting": "IL-4 production [1]", "result": 76.6, "unit": "%"}, {"measurement": "inhibition at 1 µM", "setting": "IL-4 production [1]", "result": 69.1, "unit": "%"}, {"measurement": "inhibition at 0.1 µM", "setting": "IL-4 production [1]", "result": 33.8, "unit": "%"}, {"measurement": "inhibition at 0.01 µM", "setting": "IL-4 production [1]", "result": 11.8, "unit": "%"}, {"measurement": "inhibition at 1 µM", "setting": "IL-5 production", "result": 86.9, "unit": "%"}]}, {"compound": "COc1cnc(/C=C/C(=O)c2ccccc2)cc1OCC(=O)c1ccccc1", "note": "[Ex. 47, 5-Methoxy-4-(2-oxo-2-phenylethoxy)-2-(3-oxo-3-phenyl-1-propenyl)pyridine]", "values": [{"measurement": "inhibition at 10 µM", "setting": "IL-4 production [1]", "result": 113, "unit": "%"}, {"measurement": "inhibition at 1 µM", "setting": "IL-4 production [1]", "result": 89.6, "unit": "%"}, {"measurement": "inhibition at 0.1 µM", "setting": "IL-4 production [1]", "result": 74.1, "unit": "%"}, {"measurement": "inhibition at 0.01 µM", "setting": "IL-4 production [1]", "result": 58.9, "unit": "%"}, {"measurement": "inhibition at 1 µM", "setting": "IL-5 production", "result": 67.2, "unit": "%"}]}, {"compound": "COCCOCOc1cc(/C=C/C(=O)c2ccccc2)ncc1OC", "note": "[Ex. 48, 5-Methoxy-4-methoxyethoxymethoxy-2-(3-oxo-3-phenyl-1-propenyl)pyridine]", "values": [{"measurement": "inhibition at 10 µM", "setting": "IL-4 production [1]", "result": 111, "unit": "%"}, {"measurement": "inhibition at 1 µM", "setting": "IL-4 production [1]", "result": 74.7, "unit": "%"}, {"measurement": "inhibition at 0.1 µM", "setting": "IL-4 production [1]", "result": 50.1, "unit": "%"}, {"measurement": "inhibition at 0.01 µM", "setting": "IL-4 production [1]", "result": 7.6, "unit": "%"}, {"measurement": "inhibition at 1 µM", "setting": "IL-5 production", "result": 62.2, "unit": "%"}]}, {"compound": "COc1cnc(/C=C/C(=O)c2ccccc2[N+](=O)[O-])cc1OC", "note": "[Ex. 51, 4,5-Dimethoxy-2-[3-(2-nitrophenyl)-3-oxo-1-propenyl]pyridine]", "values": [{"measurement": "inhibition at 10 µM", "setting": "IL-4 production [2]", "result": 102, "unit": "%"}, {"measurement": "inhibition at 1 µM", "setting": "IL-4 production [2]", "result": 20.5, "unit": "%"}, {"measurement": "inhibition at 0.1 µM", "setting": "IL-4 production [2]", "result": 30.1, "unit": "%"}, {"measurement": "inhibition at 0.01 µM", "setting": "IL-4 production [2]", "result": 26.3, "unit": "%"}, {"measurement": "inhibition at 1 µM", "setting": "IL-5 production", "result": 93.6, "unit": "%"}]}, {"compound": "COc1cnc(/C=C/C(=O)c2ccc([N+](=O)[O-])cc2)cc1OC", "note": "[Ex. 52, 4,5-Dimethoxy-2-[3-(4-nitrophenyl)-3-oxo-1-propenyl]pyridine]", "values": [{"measurement": "inhibition at 10 µM", "setting": "IL-4 production [2]", "result": 76.1, "unit": "%"}, {"measurement": "inhibition at 1 µM", "setting": "IL-4 production [2]", "result": 48.9, "unit": "%"}, {"measurement": "inhibition at 0.1 µM", "setting": "IL-4 production [2]", "result": 25.6, "unit": "%"}, {"measurement": "inhibition at 0.01 µM", "setting": "IL-4 production [2]", "result": 11.6, "unit": "%"}, {"measurement": "inhibition at 1 µM", "setting": "IL-5 production", "result": 64.2, "unit": "%"}]}, {"compound": "COc1cnc(/C=C/C(=O)c2ccc(Cl)cc2Cl)cc1OC", "note": "[Ex. 53, 4,5-Dimethoxy-2-[3-(2,4-dichlorophenyl)-3-oxo-1-propenyl]pyridine]", "values": [{"measurement": "inhibition at 10 µM", "setting": "IL-4 production [2]", "result": 105, "unit": "%"}, {"measurement": "inhibition at 1 µM", "setting": "IL-4 production [2]", "result": 103, "unit": "%"}, {"measurement": "inhibition at 0.1 µM", "setting": "IL-4 production [2]", "result": 16.7, "unit": "%"}, {"measurement": "inhibition at 0.01 µM", "setting": "IL-4 production [2]", "result": 23.1, "unit": "%"}, {"measurement": "inhibition at 1 µM", "setting": "IL-5 production", "result": 75, "unit": "%"}]}, {"compound": "COc1cnc(/C=C/C(=O)c2c(Cl)cccc2Cl)cc1OC", "note": "[Ex. 54, 4,5-Dimethoxy-2-[3-(2,6-dichlorophenyl)-3-oxo-1-propenyl]pyridine]", "values": [{"measurement": "inhibition at 10 µM", "setting": "IL-4 production [2]", "result": 101, "unit": "%"}, {"measurement": "inhibition at 1 µM", "setting": "IL-4 production [2]", "result": 98.7, "unit": "%"}, {"measurement": "inhibition at 0.1 µM", "setting": "IL-4 production [2]", "result": 24.2, "unit": "%"}, {"measurement": "inhibition at 0.01 µM", "setting": "IL-4 production [2]", "result": 6.1, "unit": "%"}, {"measurement": "inhibition at 1 µM", "setting": "IL-5 production", "result": 93.3, "unit": "%"}]}, {"compound": "COc1cnc(/C=C/C(=O)c2c(OC)cccc2OC)cc1O", "note": "[Ex. 56, 4-Hydroxy-5-methoxy-2-[3-(2,6-dimethoxyphenyl)-3-oxo-1-propenyl]pyridine]", "values": [{"measurement": "inhibition at 10 µM", "setting": "IL-4 production [2]", "result": 101, "unit": "%"}, {"measurement": "inhibition at 1 µM", "setting": "IL-4 production [2]", "result": 53.7, "unit": "%"}, {"measurement": "inhibition at 0.1 µM", "setting": "IL-4 production [2]", "result": 47.1, "unit": "%"}, {"measurement": "inhibition at 0.01 µM", "setting": "IL-4 production [2]", "result": 42.1, "unit": "%"}, {"measurement": "inhibition at 1 µM", "setting": "IL-5 production", "result": 79.8, "unit": "%"}]}]}
